Data published in patent US12077503B2, “Substituted cyclic amides and their use as herbicides” (FMC CORPORATION, priority 2015, dated 2024).

Experiments:
Format in all cases: in vivo
[1] = test system: pigweed (Amaranthus retroflexus); assay: Test A postemergence
From the text: (§1) Seeds of plant species selected from barnyardgrass (Echinochloa crus-galli), Kochia (Kochia scoparia), ragweed (common ragweed, Ambrosia elatior), ryegrass, Italian (Italian ryegrass, Lolium multiflorum), crabgrass, large (Digitaria sanguinalis), giant foxtail (Setaria faberii), green foxtail (Setaria viridis), morningglory (Ipomoea spp.), pigweed (Amaranthus retroflexus), velvetleaf (Abutilon theophrasti), wheat (Triticum aestivum), and corn (Zea mays) were planted into a blend of loam soil and sand and treated preemergence with a directed soil spray using test chemicals formulated in anon-phytotoxic solvent mixture which included a surfactant.
(§2) At the same time, plants selected from these crop and weed species and also blackgrass (Alopecurus myosuroides), and Galium (catchweed bedstraw, Galium aparine) were planted in pots containing the same blend of loam soil and sand and treated with postemergence applications of test chemicals formulated in the same manner. Plants ranged in height from 2 to 10 cm and were in the one- to two-leaf stage for the postemergence treatment. Treated plants and untreated controls were maintained in a greenhouse for approximately 10 d, after which time all treated plants were compared to untreated controls and visually evaluated for injury. Plant response ratings, summarized in Table A, are based on a 0 to 100 scale where 0 is no effect and 100 is complete control. A dash (-) response means no test result.

[2] = test system: wheat (Triticum aestivum); assay: Test A postemergence
From the text: as §1, §2

[3] = test system: giant foxtail (Setaria faberii); assay: Test A postemergence
From the text: as §1, §2

[4] = test system: ryegrass, Italian (Italian ryegrass, Lolium multiflorum); assay: Test A postemergence
From the text: as §1, §2

corn (Zea mays) = assay: Test A postemergence
From the text: as §1, §2

[5] = test system: blackgrass (Alopecurus myosuroides); assay: Test A postemergence
From the text: as §1, §2

[6] = test system: barnyardgrass (Echinochloa crus-galli); assay: Test A postemergence
From the text: as §1, §2

[7] = test system: ragweed (common ragweed, Ambrosia elatior); assay: Test A postemergence
From the text: as §1, §2

Kochia (Kochia scoparia) [8] = assay: Test A postemergence
From the text: as §1, §2

[9] = test system: Galium (catchweed bedstraw, Galium aparine); assay: Test A postemergence
From the text: as §1, §2

[10] = test system: pigweed (Amaranthus retroflexus); assay: Test A preemergence; details: for Pigweed plant response rating (0 to 100 scale, 0 is no effect, 100 is complete control): visual injury approx. 10 d
From the text: as §1, §2

[11] = test system: giant foxtail (Setaria faberii); assay: Test A preemergence; details: for Foxtail, Giant plant response rating (0 to 100 scale, 0 is no effect, 100 is complete control): visual injury approx. 10 d
From the text: as §1, §2

[12] = test system: ryegrass, Italian (Italian ryegrass, Lolium multiflorum); assay: Test A preemergence; details: for Ryegrass, Italian plant response rating (0 to 100 scale, 0 is no effect, 100 is complete control): visual injury approx. 10 d
From the text: as §1, §2

[13] = test system: barnyardgrass (Echinochloa crus-galli); assay: Test A preemergence; details: for Barnyardgrass plant response rating (0 to 100 scale, 0 is no effect, 100 is complete control): visual injury approx. 10 d
From the text: as §1, §2

[14] = test system: ragweed (common ragweed, Ambrosia elatior); assay: Test A preemergence; details: for Ragweed plant response rating (0 to 100 scale, 0 is no effect, 100 is complete control): visual injury approx. 10 d
From the text: as §1, §2

Kochia (Kochia scoparia) [15] = assay: Test A preemergence; details: for Kochia plant response rating (0 to 100 scale, 0 is no effect, 100 is complete control): visual injury approx. 10 d
From the text: as §1, §2

[16] = test system: ducksalad (Heteranthera limosa); assay: Test B flooded paddy test; details: Flood, 250 g ai/ha; 0 to 100 scale where 0 is no effect and 100 is complete control; 13 to 15 d
Summary of the method: (§3)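 Greenhouse paddy pots with 2-leaf stage plants received compound by direct addition to floodwater 3 cm deep, kept at that level. Scored visually at 13–15 d versus controls (0 no effect; 100 complete control).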

[17] = test system: barnyardgrass (Echinochloa crus-galli); assay: Test B flooded paddy test; details: Flood, 250 g ai/ha; 0 to 100 scale where 0 is no effect and 100 is complete control; 13 to 15 d
Summary of the method: as §3

[18] = test system: sedge, umbrella (small-flower umbrella sedge, Cyperus difformis); assay: Test B flooded paddy test; details: Flood, 250 g ai/ha; 0 to 100 scale where 0 is no effect and 100 is complete control; 13 to 15 d
Summary of the method: as §3

rice (Oryra sativa) = assay: Test B flooded paddy test; details: Flood, 250 g ai/ha; 0 to 100 scale where 0 is no effect and 100 is complete control; 13 to 15 d
Summary of the method: as §3

[19] = 125 g ai/ha, postemergence, visual rating after approx. 10 d, 0 to 100 scale (0 no effect, 100 complete control)
[20] = Postemergence, 500 g ai/ha, 0 to 100 scale where 0 is no effect and 100 is complete control
[21] = 125 g ai/ha, Preemergence, visual injury after approximately 10 d, 0 to 100 scale where 0 is no effect and 100 is complete control
[22] = 500 g ai/ha, postemergence, visual injury, 0 to 100 scale (0 no effect, 100 complete control), approx. 10 d
[23] = 500 g ai/ha, preemergence, 0 to 100 scale, 0 = no effect, 100 = complete control

| SMILES | Plant response rating, Pigweed [1, 19] | Plant response rating, Wheat [2, 19] | Plant response rating, Foxtail, Giant [3, 19] | Plant response rating, Ryegrass, Italian [4, 19] | Plant response rating, Corn (corn (Zea mays); [19]) | Plant response rating, Blackgrass [5, 19] | Plant response rating, Barnyardgrass [6, 19] | Plant response rating, Ragweed [7, 19] | Plant response rating, Kochia (Kochia (Kochia scoparia) [8]; [19]) | Plant response rating, Galium [9, 19] | Plant response rating, Pigweed [10, 21] | Plant response rating, Foxtail, Giant [11, 21] | Plant response rating, Ryegrass, Italian [12, 21] | Plant response rating, Barnyardgrass [13, 21] | Plant response rating, Ragweed [14, 21] | Plant response rating, Kochia (Kochia (Kochia scoparia) [15]; [21]) | Plant response rating, Ducksalad [16] | Plant response rating, Barnyardgrass [17] | Plant response rating, Sedge, Umbrella [18] | Plant response rating, Rice (rice (Oryra sativa)) | also measured |
| --- | --- | --- | --- | --- | --- | --- | --- | --- | --- | --- | --- | --- | --- | --- | --- | --- | --- | --- | --- | --- | --- |
| O=C1NCC(c2cc(F)ccc2F)C1C(=O)Nc1cccc(F)c1F (racemic) [Compound 546] | 0 | 0 | 70 | 0 | 0 | 0 | 80 | 0 | 0 | 0 | 0 | 90 | 0 | 80 | 0 | 0 | 85 | 70 | 0 | 20 | Plant response rating, Pigweed [1, 20]: 0; Plant response rating, Wheat [2, 20]: 0; Plant response rating, Foxtail, Giant [3, 20]: 90; Plant response rating, Ryegrass, Italian [4, 20]: 0; Plant response rating, Corn (corn (Zea mays); [20]): 20; Plant response rating, Blackgrass [5, 20]: 20; Plant response rating, Barnyardgrass [6, 20]: 90; Plant response rating, Ragweed [7, 20]: 0; Plant response rating, Kochia (Kochia (Kochia scoparia) [8]; [20]): 0; Plant response rating, Galium [9, 20]: 0; Pigweed plant response rating (0 to 100 scale, 0 is no effect, 100 is complete control) ([10]; Preemergence, 500 g ai/ha): 0; Foxtail, Giant plant response rating (0 to 100 scale, 0 is no effect, 100 is complete control) ([11]; Preemergence, 500 g ai/ha): 90; Ryegrass, Italian plant response rating (0 to 100 scale, 0 is no effect, 100 is complete control) ([12]; Preemergence, 500 g ai/ha): 0; Barnyardgrass plant response rating (0 to 100 scale, 0 is no effect, 100 is complete control) ([13]; Preemergence, 500 g ai/ha): 90; Ragweed plant response rating (0 to 100 scale, 0 is no effect, 100 is complete control) ([14]; Preemergence, 500 g ai/ha): 0; Kochia plant response rating (0 to 100 scale, 0 is no effect, 100 is complete control) (Kochia (Kochia scoparia) [15]; Preemergence, 500 g ai/ha): 0 |
| O=C1NCC(c2cc(F)c(F)cc2F)C1C(=O)Nc1ccccc1F (racemic) [Compound 549] | 0 | 0 | 20 | 0 | 0 | 0 | 40 | 0 | 0 | 0 | 0 | 90 | 0 | 40 | 0 | 0 | 90 | 25 | 0 | 0 | Plant response rating, Pigweed [1, 20]: 0; Plant response rating, Wheat [2, 20]: 20; Plant response rating, Foxtail, Giant [3, 20]: 90; Plant response rating, Ryegrass, Italian [4, 20]: 0; Plant response rating, Corn (corn (Zea mays); [20]): 0; Plant response rating, Blackgrass [5, 20]: 20; Plant response rating, Barnyardgrass [6, 20]: 90; Plant response rating, Ragweed [7, 20]: 0; Plant response rating, Kochia (Kochia (Kochia scoparia) [8]; [20]): 20; Plant response rating, Galium [9, 20]: 0; Pigweed plant response rating (0 to 100 scale, 0 is no effect, 100 is complete control) ([10]; Preemergence, 500 g ai/ha): 0; Foxtail, Giant plant response rating (0 to 100 scale, 0 is no effect, 100 is complete control) ([11]; Preemergence, 500 g ai/ha): 90; Ryegrass, Italian plant response rating (0 to 100 scale, 0 is no effect, 100 is complete control) ([12]; Preemergence, 500 g ai/ha): 0; Barnyardgrass plant response rating (0 to 100 scale, 0 is no effect, 100 is complete control) ([13]; Preemergence, 500 g ai/ha): 80; Ragweed plant response rating (0 to 100 scale, 0 is no effect, 100 is complete control) ([14]; Preemergence, 500 g ai/ha): 0; Kochia plant response rating (0 to 100 scale, 0 is no effect, 100 is complete control) (Kochia (Kochia scoparia) [15]; Preemergence, 500 g ai/ha): 0 |
| O=C1NCC(c2cc(F)c(F)cc2F)C1C(=O)Nc1cccc(F)c1F (racemic) [Compound 550] | 0 | 0 | 80 | 0 | 0 | 0 | 80 | 0 | 0 | 0 | 0 | 90 | 0 | 40 | 0 | 0 | 95 | 55 | 0 | 50 | Plant response rating, Pigweed [1, 20]: 0; Plant response rating, Wheat [2, 20]: 30; Plant response rating, Foxtail, Giant [3, 20]: 90; Plant response rating, Ryegrass, Italian [4, 20]: 20; Plant response rating, Corn (corn (Zea mays); [20]): 20; Plant response rating, Blackgrass [5, 20]: 50; Plant response rating, Barnyardgrass [6, 20]: 90; Plant response rating, Ragweed [7, 20]: 0; Plant response rating, Kochia (Kochia (Kochia scoparia) [8]; [20]): 50; Plant response rating, Galium [9, 20]: 60; Pigweed plant response rating (0 to 100 scale, 0 is no effect, 100 is complete control) ([10]; Preemergence, 500 g ai/ha): 0; Foxtail, Giant plant response rating (0 to 100 scale, 0 is no effect, 100 is complete control) ([11]; Preemergence, 500 g ai/ha): 90; Ryegrass, Italian plant response rating (0 to 100 scale, 0 is no effect, 100 is complete control) ([12]; Preemergence, 500 g ai/ha): 20; Barnyardgrass plant response rating (0 to 100 scale, 0 is no effect, 100 is complete control) ([13]; Preemergence, 500 g ai/ha): 90; Ragweed plant response rating (0 to 100 scale, 0 is no effect, 100 is complete control) ([14]; Preemergence, 500 g ai/ha): 0; Kochia plant response rating (0 to 100 scale, 0 is no effect, 100 is complete control) (Kochia (Kochia scoparia) [15]; Preemergence, 500 g ai/ha): 40 |
| Cc1cc(C2CNC(=O)C2C(=O)Nc2cccc(F)c2F)cs1 (racemic) [Compound 656] | 0 | 0 | 20 | 0 | 0 | 0 | 90 | 0 | 20 | 0 | 30 | 90 | 30 | 90 | 20 | 60 | 100 | 50 | 0 | 0 | Plant response rating, Pigweed [1, 22]: 0; Plant response rating, Wheat [2, 22]: 20; Plant response rating, Foxtail, Giant [3, 22]: 60; Plant response rating, Ryegrass, Italian [4, 22]: 0; Plant response rating, Corn (corn (Zea mays); [22]): 20; Plant response rating, Blackgrass [5, 22]: 30; Plant response rating, Barnyardgrass [6, 22]: 90; Plant response rating, Ragweed [7, 22]: 0; Plant response rating, Kochia (Kochia (Kochia scoparia) [8]; [22]): 30; Plant response rating, Galium [9, 22]: 60; Plant response rating, Pigweed [10, 23]: 40; Plant response rating, Foxtail, Giant [11, 23]: 90; Plant response rating, Ryegrass, Italian [12, 23]: 60; Plant response rating, Barnyardgrass [13, 23]: 90; Plant response rating, Ragweed [14, 23]: 60; Plant response rating, Kochia (Kochia (Kochia scoparia) [15]; [23]): 50 |
